The results in this text go back to US9453253B2, “Methods of using isotopically labelled isoniazid for the diagnosis of mycobacterial infections” (priority 2012, dated 2016).

One test concerns M. bovis BCG. The test is classed as cell-based.
The subject of test [1] is Mycobacterium tuberculosis H37Rv. The test is classed as cell-based. Conditions: M. tuberculosis H37Rv, 1 mg/mL, 1 hour, head gas, control subtracted.

For `[15NH2][15NH]C(=O)c1ccncc1` [^15N2-hydrazyl-INH], in the test with M. bovis BCG, the “30/28 mass signal in nitrogen gas, dependency on CFU” value was “proportional to CFU/mL”; the “30/28 mass signal in nitrogen gas, dose dependence” value is given as “dependent upon dose”; the “30/28 mass signal in nitrogen gas, time dependence” value is “increase in the signal over the course of an hour, which then begins to decrease by 4 hours”. Further, the “30/28 mass signal in nitrogen gas, dependency on CFU” value in test [1] was “proportional to CFU/mL”.
